Test results: patent publication US20240025919A1, “AZA-TETRACYCLIC OXAZEPINE COMPOUNDS AND USES THEREOF” (Genentech, Inc., priority 2022, published 2024)

Tests used:
KRAS G12D = KRAS G12D (Homo sapiens (Human), UniProt P01116, G12D); assay: KRAS G12D LoEnz Biochemical Assay, BODIPY-GDP Exchange TR-FRET (SOS1-mediated nucleotide exchange); details: read-out: KRas (G12D) GDP HTRF IC50
KRAS WT = KRAS WT (Homo sapiens (Human), UniProt P01116); assay: KRAS WT Biochemical Assay, BODIPY-GDP Exchange TR-FRET (Example 502; 0.06 nM KRAS WT, 15 nM GDP, 300 nM SOS1, 120-minute incubation); details: read-out: KRas HTRF IC50
Chain of KRAS WT (P01116-2 other isoform, or with tags, fused parts or gaps): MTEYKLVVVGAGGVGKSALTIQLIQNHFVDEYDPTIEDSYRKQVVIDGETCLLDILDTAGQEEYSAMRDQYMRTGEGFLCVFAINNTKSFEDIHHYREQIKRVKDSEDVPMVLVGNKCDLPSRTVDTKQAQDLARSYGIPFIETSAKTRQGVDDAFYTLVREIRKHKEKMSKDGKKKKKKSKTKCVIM
Experimental: Example 502: KRAS WT Biochemical Assay, BODIPY-GDP Exchange TR-FRET. Biochemical compound potencies are assessed by evaluating inhibition of SOS1-mediated nucleotide exchange in KRAS WT. In this assay, the SOS1-promoted exchange of fluorescently-labeled GDP (BOPIDY-GDP) is monitored by time-resolved fluorescence resonance energy transfer (TR-FRET). Compounds solubilized in DMSO are dispensed as concentration series into 384-well white assay plates. A preformed complex of 0.06 nM biotin-tagged recombinant human KRAS WT, 15 nM GDP and 0.06 nM terbium-labeled streptavidin (CisBIO) prepared in 10 uL/well assay buffer (20 mM HEPES, pH 7.5, 50 mM NaCl, 10 mM MgCl2, 0.01% Tween-20 and 1 mM dithiothreitol) is added and allowed to incubate for 10-minutes at room temperature. The reaction is initiated with the addition of 5 uL 300 nM recombinant human SOS1 and 300 nM BODIPY-GDP in assay buffer. After a 120-minute incubation, the fluorescence is measured with excitation at 337 nm and emission at 490 and 520 nm. The TR-FRET ratio is determined as the fluorescence at 520 nm divided by the fluorescence at 490 nm multiplied by 10,000. The results are normalized to percent inhibition based on control samples: DMSO (0% inhibition) and control compound at a concentration that inhibits completely (100% inhibition). The normalized TR-FRET results are plotted against compound concentration, and the data are fit to a 4-parameter Hill equation to determine the IC50 values.

Chain of KRAS G12D (P01116-2 other isoform, or with tags, fused parts or gaps G12D): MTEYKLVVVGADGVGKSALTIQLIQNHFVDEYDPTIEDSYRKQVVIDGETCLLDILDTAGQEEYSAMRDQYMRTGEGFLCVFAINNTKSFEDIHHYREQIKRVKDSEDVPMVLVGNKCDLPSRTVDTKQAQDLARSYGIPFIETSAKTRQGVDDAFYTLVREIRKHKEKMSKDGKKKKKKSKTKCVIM

| Structure (SMILES) | IC50 (KRAS G12D) | IC50 (KRAS WT) |
| --- | --- | --- |
| Cc1c(F)c(N)cc(-c2nc3c4c(nc(OC[C@@H]5CC(F)(F)CN5C)nc4c2F)N2C[C@H]4CC[C@H](N4)[C@H]2[C@H](C)O3)c1C(F)(F)F [Compound 65, 5-((5S,5aS,6S,9R)-12-(((S)-4,4-Difluoro-1-methylpyrrolidin-2-yl)methoxy)-1-fluoro-5-methyl-5a,6,7,8,9,10-hexahydro-5H-4-oxa-3,10a,11,13,14-pentaaza-6,9-methanonaphtho[1,8-ab]heptalen-2-yl)-2-fluoro-3-methyl-4-(trifluoromethyl)aniline] | 1.72 nM | 377 nM |
| Cc1c(F)c(N)cc(-c2nc3c4c(nc(OC[C@H]5CC(F)(F)CN5C)nc4c2F)N2C[C@H]4CC[C@H](N4)[C@H]2[C@H](C)O3)c1C(F)(F)F [Compound 66, 5-((5S,5aS,6S,9R)-12-(((R)-4,4-difluoro-1-methylpyrrolidin-2-yl)methoxy)-1-fluoro-5-methyl-5a,6,7,8,9,10-hexahydro-5H-4-oxa-3,10a,11,13,14-pentaaza-6,9-methanonaphtho[1,8-ab]heptalen-2-yl)-2-fluoro-3-methyl-4-(trifluoromethyl)aniline] | 2.29 nM | 274 nM |
| Cc1cc(N)cc(-c2nc3c4c(nc(OC[C@@H]5CC[C@H]6COCCN65)nc4c2F)N2C[C@H]4CC[C@H](N4)[C@H]2[C@H](C)O3)c1C(F)(F)F [Compound 67, 3-((5S,5aS,6S,9R)-1-Fuoro-1-(((6S,8aS)-hexahydro-1H-pyrrolo[2,1-c][1,4]oxazin-6-yl)methoxy)-5-methyl-5a,6,7,8,9,10-hexahydro-5H-4-oxa-3,10a,11,13,14-pentaaza-6,9-methanonaphtho[1,8-ab]heptalen-2-yl)-5-methyl-4-(trifluoromethyl)aniline] | 0.17 nM | 7.53 nM |
| Cc1cc(N)cc(-c2nc3c4c(nc(OC[C@@]56CCCN5CC5(CC5(F)F)C6)nc4c2F)N2C[C@H]4CC[C@H](N4)[C@H]2[C@H](C)O3)c1C(F)(F)F (stereo partly drawn) [Compound 68, 3-((5S,5aS,6S,9R)-12-(((7a′S)-2,2-Difluorodihydro-1′H,3′H-spiro[cyclopropane-1,2′-pyrrolizin]-7a′(5′H)-yl)methoxy)-1-fluoro-5-methyl-5a,6,7,8,9,10-hexahydro-5H-4-oxa-3,10a,11,13,14-pentaaza[6,9]methanonaphtho[1,8-ab]heptalen-2-yl)-5-methyl-4-(trifluoromethyl)aniline] | 0.07 nM | 0.112 nM |
| Cc1cc(N)cc(-c2nc3c4c(nc(OC[C@]56CCCN5CC(F)(F)C6)nc4c2F)N2C[C@H]4CC[C@H](N4)[C@H]2[C@H](C)O3)c1C(F)(F)F [Compound 69, 3-((5S,5aS,6S,9R)-12-(((R)-2,2-Difluorotetrahydro-1H-pyrrolizin-7a(5H)-yl)methoxy)-1-fluoro-5-methyl-5a,6,7,8,9,10-hexahydro-5H-4-oxa-3,10a,11,13,14-pentaaza-6,9-methanonaphtho[1,8-ab]heptalen-2-yl)-5-methyl-4-(trifluoromethyl)aniline] | 0.31 nM | 40.9 nM |
| C[C@@H]1Oc2nc(-c3cc(N)c(F)cc3C(F)(F)F)c(F)c3nc(OC[C@@H]4CC[C@H]5COCCN54)nc(c23)N2C[C@H]3CC[C@H](N3)[C@@H]12 [Compound 70, 2-Fluoro-5-((5S,5aS,6S,9R)-1-fluoro-12-(((6S,8aS)-hexahydro-1H-pyrrolo[2,1-c][1,4]oxazin-6-yl)methoxy)-5-methyl-5a,6,7,8,9,10-hexahydro-5H-4-oxa-3,10a,11,13,14-pentaaza-6,9-methanonaphtho[1,8-ab]heptalen-2-yl)-4-(trifluoromethyl)aniline] | 0.71 nM | 169 nM |
| C[C@@H]1Oc2nc(-c3cc(N)ccc3C(F)(F)F)c(F)c3nc(OC[C@@]45CCCN4C[C@H](F)C5)nc(c23)N2C[C@H]3CC[C@H](N3)[C@@H]12 [Compound 72, 3-((5S,5aS,6S,9R)-1-Fluoro-12-(((2R,7aS)-2-fluorotetrahydro-1H-pyrrolizin-7a(5H)-yl)methoxy)-5-methyl-5a,6,7,8,9,10-hexahydro-5H-4-oxa-3,10a,11,13,14-pentaaza-6,9-methanonaphtho[1,8-ab]heptalen-2-yl)-4-(trifluoromethyl)aniline] | 0.28 nM | 12.9 nM |
| C[C@@H]1Oc2nc(-c3cc(N)c(F)cc3C(C)(F)F)c(F)c3nc(OC[C@@]45CCCN4C[C@H](F)C5)nc(c23)N2C[C@H]3CC[C@H](N3)[C@@H]12 [Compound 73, 4-(1,1-difluoroethyl)-2-fluoro-5-((5S,5aS,6S,9R)-1-fluoro-12-(((2R,7aS)-2-fluorotetrahydro-1H-pyrrolizin-7a(5H)-yl)methoxy)-5-methyl-5a,6,7,8,9,10-hexahydro-5H-4-oxa-3,10a,11,13,14-pentaaza-6,9-methanonaphtho[1,8-ab]heptalen-2-yl)aniline] | 2.6 nM | 36.3 nM |
| Cc1cc(N)cc(-c2nc3c4c(nc(OC[C@@]56CCCN5C[C@H](F)C6)nc4c2F)N2C[C@H]4CC[C@H](N4)[C@H]2[C@H](C)O3)c1Cl [Compound 74, 4-Chloro-3-((5S,5aS,6S,9R)-1-fluoro-12-(((2R,7aS)-2-fluorotetrahydro-1H-pyrrolizin-7a(5H)-yl)methoxy)-5-methyl-5a,6,7,8,9,10-hexahydro-5H-4-oxa-3,10a,11,13,14-pentaaza-6,9-methanonaphtho[1,8-ab]heptalen-2-yl)-5-methylaniline] | 0.33 nM | 30.8 nM |
| Cc1c(F)c(N)cc(-c2nc3c4c(nc(OC[C@@]56CCCN5C[C@H](F)C6)nc4c2F)N2C[C@H]4CC[C@H](N4)[C@H]2[C@H](C)O3)c1CC(F)F [Compound 75, 4-(2,2-Difluoroethyl)-2-fluoro-5-((5S,5aS,6S,9R)-1-fluoro-12-(((2R,7aS)-2-fluorotetrahydro-1H-pyrrolizin-7a(5H)-yl)methoxy)-5-methyl-5a,6,7,8,9,10-hexahydro-5H-4-oxa-3,10a,11,13,14-pentaaza-6,9-methanonaphtho[1,8-ab]heptalen-2-yl)-3-methylaniline] | 0.13 nM | 11.8 nM |
| Cc1c(F)c(N)cc(-c2nc3c4c(nc(OC[C@@]56CCCN5C[C@H](F)C6)nc4c2F)N2C[C@H]4CC[C@H](N4)[C@H]2[C@H](C)O3)c1Cl [Compound 76, 4-Chloro-2-fluoro-5-((5S,5aS,6S,9R)-1-fluoro-12-(((2R,7aS)-2-fluorotetrahydro-1H-pyrrolizin-7a(5H)-yl)methoxy)-5-methyl-5a,6,7,8,9,10-hexahydro-5H-4-oxa-3,10a,11,13,14-pentaaza-6,9-methanonaphtho[1,8-ab]heptalen-2-yl)-3-methylaniline] | 0.13 nM | 14.3 nM |
| C[C@@H]1Oc2nc(-c3cc(N)cc(F)c3C(F)(F)F)c(F)c3nc(OC[C@@H]4CC[C@H]5COCCN54)nc(c23)N2C[C@H]3CC[C@H](N3)[C@@H]12 [Compound 77, 3-Fluoro-5-((5S,5aS,6S,9R)-1-fluoro-12-(((6S,8aS)-hexahydro-1H-pyrrolo[2,1-c][1,4]oxazin-6-yl)methoxy)-5-methyl-5a,6,7,8,9,10-hexahydro-5H-4-oxa-3,10a,11,13,14-pentaaza-6,9-methanonaphtho[1,8-ab]heptalen-2-yl)-4-(trifluoromethyl)aniline] | 0.24 nM | 21.1 nM |
| C[C@@H]1Oc2nc(-c3cc(O)cc4ccc(F)c(F)c34)c(F)c3nc(OC[C@@]45CCCN4C[C@H](F)C5)nc(c23)N2C[C@H]3CC[C@H](N3)[C@@H]12 [Compound 82, 5,6-Difluoro-4-((5S,5aS,6S,9aR)-1-fluoro-12-(((2R,7aS)-2-fluorotetrahydro-1H-pyrrolizin-7a(5H)-yl)methoxy)-5-methyl-5a,6,7,8,9,10-hexahydro-5H-4-oxa-3,10a,11,13,14-pentaaza-6,9-methanonaphtho[1,8-ab]heptalen-2-yl)naphthalen-2-ol] | 360 nM | 23500 nM |
| C[C@@H]1Oc2nc(-c3cc(N)cc4c3CCC4)c(F)c3nc(OC[C@@]45CCCN4C[C@H](F)C5)nc(c23)N2C[C@H]3CC[C@H](N3)[C@@H]12 [Compound 83, 7-((5S,5aS,6S,9R)-1-Fluoro-12-(((2R,7aS)-2-fluorotetrahydro-1H-pyrrolizin-7a(5H)-yl)methoxy)-5-methyl-5a,6,7,8,9,10-hexahydro-5H-4-oxa-3,10a,11,13,14-pentaaza-6,9-methanonaphtho[1,8-ab]heptalen-2-yl)-2,3-dihydro-1H-inden-5-amine] | 1.15 nM | 123 nM |
| C[C@@H]1Oc2nc(-c3nc(N)c(F)cc3C(F)(F)F)c(F)c3nc(OC[C@@]45CCCN4CC4(CC4(F)F)C5)nc(c23)N2C[C@H]3CC[C@H](N3)[C@@H]12 (stereo partly drawn) [Compound 86, 6-((5S,5aS,6S,9R)-12-(((7a′S)-2,2-difluorodihydro-1′H,3′H-spiro-[cyclopropane-1,2′-pyrrolizin]-7a′(5′H)-yl)methoxy)-1-fluoro-5-methyl-5a,6,7,8,9,10-hexahydro-5H-4-oxa-3,10a,11,13,14-pentaaza[6,9]methanonaphtho[1,8-ab]heptalen-2-yl)-3-fluoro-5-(trifluoromethyl)pyridin-2-amine] | 4.67 nM | 248 nM |
